Among the test systems are HCT-15 colon; SN12C renal; SR leukemia; A549 NSCLC; MCF7 breast; SNB-75 CNS; SF-268 CNS; BT-549 breast; IGROV1 ovarian; HT29 colon.
Common to all, as to assay: NCI-60 cell line screen, 48 h

The record followed here is PubChem BioAssay (NCI).

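Growth conditions: 96-well plates. Treatment: test compound, 48 hours, 5 concentrations. Analysis: linear interpolation between bracketing concentrations; unreached endpoints set to highest concentration. The concentration for 50% growth inhibition is given as GI50. TGI: concentration producing complete growth inhibition.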

Turning to `COc1ccccc1-c1ccc2nc(NC(=O)Nc3cc(C(F)(F)F)cc(C(F)(F)F)c3)sc2c1`, the GI50 in the assay with HCT-15 colon is 2.55 µM; with SN12C renal, 1.7 µM; in the assay on SR leukemia, 1.76 µM; in the assay on A549 NSCLC it was 3.19 µM; in the assay with MCF7 breast it was 2.28 µM; in the assay on SNB-75 CNS, 2.25 µM. In addition, the GI50 is 2.86 µM in the assay on SF-268 CNS, 1.62 µM with BT-549 breast, 2.83 µM in the assay with IGROV1 ovarian and 2.15 µM with HT29 colon. In addition, the TGI in the assay with HCT-15 colon was found to be 10.6 µM; with SN12C renal, 3.36 µM; with SR leukemia it was 5.25 µM; in the assay on A549 NSCLC it was 11.8 µM; with MCF7 breast it was 10.9 µM; in the assay on SNB-75 CNS, 11.8 µM. Besides, the TGI with SF-268 CNS was determined as 12.2 µM; with BT-549 breast, 3.72 µM; in the assay with IGROV1 ovarian, 10.7 µM; in the assay on HT29 colon, 9.21 µM.
On to `Clc1ccccc1-c1nc(-c2ccncc2)no1`, for which the TGI in the assay with HCT-15 colon, in the assay on SN12C renal, in the assay with SR leukemia, in the assay with A549 NSCLC, with MCF7 breast and in the assay on SNB-75 CNS was greater than 100 µM throughout. The TGI in the assay with SF-268 CNS, with BT-549 breast, with IGROV1 ovarian and with HT29 colon was greater than 100 µM in each case.
Take `Nc1c(S(=O)(=O)O)cc(Nc2cccc(S(N)(=O)=O)c2)c2c1C(=O)c1ccccc1C2=O`: the TGI with HCT-15 colon is greater than 100 µM; with SN12C renal, greater than 100 µM; in the assay with SR leukemia, greater than 100 µM; in the assay on A549 NSCLC, greater than 100 µM; in the assay on MCF7 breast, greater than 100 µM; in the assay on SNB-75 CNS, 69 µM. Also, the TGI with SF-268 CNS, with BT-549 breast, with IGROV1 ovarian and in the assay with HT29 colon was greater than 100 µM throughout.
For `Cc1cc(S(N)(=O)=O)c(S/C(=N\Nc2ccc([N+](=O)[O-])cc2)c2ccc(O)cc2)cc1Cl`, the GI50 in the assay on HCT-15 colon was 3.54 µM; in the assay with SN12C renal, 2.38 µM; in the assay with SR leukemia, 51.6 µM; with A549 NSCLC it was 4.06 µM; in the assay with MCF7 breast, 2.19 µM; with SF-268 CNS, 2.22 µM. The GI50 was 7.68 µM in the assay on BT-549 breast, 4.62 µM in the assay with IGROV1 ovarian and 3.29 µM in the assay on HT29 colon. Moreover, the TGI in the assay on HCT-15 colon is 23.2 µM; with SN12C renal it was 5.29 µM; with SR leukemia it was greater than 100 µM; in the assay on A549 NSCLC it was 29.6 µM; in the assay on MCF7 breast, 5.06 µM; in the assay on SF-268 CNS it was 8.19 µM. In addition, the TGI in the assay with BT-549 breast came out at 22.7 µM; in the assay on IGROV1 ovarian, 19.9 µM; in the assay on HT29 colon it was 7.35 µM.
Turning to `COc1cc(-c2cc(-c3nc4cc(Cl)c(Cl)cc4[nH]3)[nH]n2)cc(OC)c1OC`, the GI50 is 2.89 µM with HCT-15 colon; 3.05 µM with SN12C renal; 3.89 µM in the assay on SR leukemia; 2.87 µM in the assay on A549 NSCLC; 2.79 µM in the assay on MCF7 breast; 3.12 µM in the assay on SNB-75 CNS. Moreover, the GI50 in the assay on SF-268 CNS was 3.95 µM; in the assay with BT-549 breast it was 2.84 µM; with IGROV1 ovarian it was 3.86 µM; with HT29 colon, 3.42 µM. In addition, the TGI in the assay with HCT-15 colon came to 11.8 µM; in the assay with SN12C renal it was 13.4 µM; in the assay on SR leukemia it was 20.6 µM; with A549 NSCLC, 10.5 µM; with MCF7 breast it was 11.5 µM; in the assay on SNB-75 CNS, 14.2 µM. Further, the TGI with SF-268 CNS turned out to be 14.9 µM; in the assay on BT-549 breast, 8.02 µM; in the assay with IGROV1 ovarian, 18.2 µM; with HT29 colon it was 12.5 µM.
As to `C=CC[N+]1(CCO)CCN=C1CCCCCCCCCCCCC` (configuration not stated), the GI50 in the assay with SN12C renal was 1.46 µM; in the assay with A549 NSCLC, 1.83 µM; in the assay on MCF7 breast, 1.5 µM; in the assay with SNB-75 CNS, 1.56 µM; in the assay with BT-549 breast, 1.76 µM; with IGROV1 ovarian it was 0.288 µM. Besides, the GI50 in the assay on HT29 colon is 1.3 µM. In addition, the TGI in the assay with SN12C renal worked out at 2.85 µM; in the assay with A549 NSCLC it was 3.3 µM; in the assay on MCF7 breast, 2.82 µM; in the assay with SNB-75 CNS, 2.9 µM; in the assay with BT-549 breast it was 3.24 µM; in the assay on IGROV1 ovarian, 1.25 µM. This compound came in with a TGI in the assay with HT29 colon of 2.56 µM.
As to `CCN1CCC2(CC1)NC(=O)c1c(c3ccc(Cl)c(Cl)c3n1C)C2C#N` (configuration not stated), the GI50 was 1.81 µM in the assay with HCT-15 colon; 4.1 µM with SN12C renal; 1.76 µM with SR leukemia; 3.13 µM with A549 NSCLC; 1.56 µM in the assay on MCF7 breast; 1.75 µM in the assay on SNB-75 CNS. Besides, the values for the GI50 in the assay with BT-549 breast, with IGROV1 ovarian and in the assay on HT29 colon were 3.61 µM, 3.11 µM and 1.92 µM, respectively. Moreover, the TGI in the assay on HCT-15 colon worked out at 4.75 µM; with SN12C renal, 16.3 µM; in the assay on SR leukemia, 5.69 µM; in the assay with A549 NSCLC, 13.5 µM; with MCF7 breast, 3.28 µM; with SNB-75 CNS it was 4.64 µM. Besides, the TGI in the assay on BT-549 breast is 15.2 µM; in the assay on IGROV1 ovarian, 8.97 µM; with HT29 colon, 4.11 µM.
`C/C(=C1/N=C(c2ccccc2)OC1=O)c1ccc(C)cc1`: the TGI in the assay on HCT-15 colon, in the assay on SN12C renal, with SR leukemia, in the assay on A549 NSCLC, in the assay on MCF7 breast and with SF-268 CNS was greater than 100 µM each time. In addition, the TGI in the assay with BT-549 breast, with IGROV1 ovarian and in the assay on HT29 colon was greater than 100 µM each time.
In the case of `COc1ccc(N2CCN(CN3CCN(c4ccc(OC)cc4)C3)C2)cc1`, the GI50 was 37 µM with HCT-15 colon; greater than 100 µM with SN12C renal; greater than 100 µM in the assay on A549 NSCLC; 69.5 µM in the assay with MCF7 breast; greater than 100 µM with SNB-75 CNS; greater than 100 µM with SF-268 CNS. Further, the GI50 is 79.7 µM in the assay with BT-549 breast, 17 µM with IGROV1 ovarian and greater than 100 µM with HT29 colon. Besides, the TGI with HCT-15 colon, with SN12C renal, in the assay with A549 NSCLC, in the assay with MCF7 breast, in the assay on SNB-75 CNS and in the assay on SF-268 CNS was greater than 100 µM throughout. Moreover, the TGI with BT-549 breast, in the assay with IGROV1 ovarian and in the assay on HT29 colon was greater than 100 µM each time.
